# Reference: US12565501B2, “Muscarinic acetylcholine M1 receptor antagonists” (Contineum Therapeutics, Inc., priority 2019, dated 2026)
# Target: T1, human M1 receptor (Homo sapiens, UniProt P11229)
# T1 sequence (P11229 1-460): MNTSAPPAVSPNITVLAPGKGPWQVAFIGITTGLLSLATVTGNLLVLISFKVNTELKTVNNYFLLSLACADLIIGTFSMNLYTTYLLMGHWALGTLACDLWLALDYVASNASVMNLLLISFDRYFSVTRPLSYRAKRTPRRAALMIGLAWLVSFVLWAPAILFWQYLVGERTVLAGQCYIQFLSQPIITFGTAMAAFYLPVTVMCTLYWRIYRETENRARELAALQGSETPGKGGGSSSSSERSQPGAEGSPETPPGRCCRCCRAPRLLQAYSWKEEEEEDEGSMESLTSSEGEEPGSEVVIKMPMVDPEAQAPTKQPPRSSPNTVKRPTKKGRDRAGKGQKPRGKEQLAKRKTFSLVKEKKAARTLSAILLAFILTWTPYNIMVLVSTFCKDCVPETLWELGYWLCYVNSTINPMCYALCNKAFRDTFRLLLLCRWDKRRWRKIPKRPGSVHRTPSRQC
# Assay: In vitro functional assay of muscarinic acetylcholine receptor activity (aequorin calcium flux, reversal of EC80 acetylcholine response)
# Type: cell-based
# Conditions: CHO-K1 cells stably expressing human M1 receptor with aequorin; acetylcholine at EC80; calcium flux (luminescence); read-out: M1 IC50
# In short: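 CHO-K1 cells expressing human M1 and aequorin, loaded with 5 μM coelenterazine for 4 h, preincubated with compound 30 min at room temperature, then challenged with EC80 acetylcholine.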
row,Structure (SMILES),IC50
1,"COc1cncc(C2(OCC(=O)N3CC4CCC(C3)N4c3ccc(C#N)cn3)COC2)c1 [Example 243, 6-(3-(2-((3-(5-methoxypyridin-3-yl)oxetan-3-yl)oxy)acetyl)-3,8-diazabicyclo [3.2.1]octan-8-yl)nicotinonitrile]",100 to 1000 nM
2,"N#Cc1ccc(N2[C@@H]3CC[C@H]2CN(C(=O)CCNC2(c4cccc5ncccc45)CC2)C3)nc1 [Example 27, 6-(3-(3-((1-(quinolin-5-yl)cyclopropyl)amino)propanoyl)-3,8-diazabicyclo[3.2.1]octan-8-yl)nicotinonitrile]",< 10 nM
3,"Cc1nn(C)c(C)c1C(C)OCC(=O)N1CC2CCC(C1)N2c1ccc(C#N)cn1 (racemic) [Example 198, 6-(3-(2-(1-(1,3,5-trimethyl-1H-pyrazol-4-yl)ethoxy)acetyl)-3,8-diazabicyclo[3.2.1]octan-8-yl)nicotinonitrile]",10 to 100 nM
4,"COc1cc(C(F)(F)CCC(=O)N2C[C@@H]3CC[C@H]2CN3c2ccc(C#N)cn2)ccn1 [Example 155, 6-((1S,4S)-5-(4,4-difluoro-4-(2-methoxypyridin-4-yl)butanoyl)-2,5-diazabicyclo[2.2.2]octan-2-yl)nicotinonitrile]",10 to 100 nM
5,"CC(OCCC(=O)N1CC2CCC(C1)N2c1ccc(C#N)cn1)c1cccc2ncccc12 (racemic) [Example 311, 6-(3-(3-(1-(quinolin-5-yl)ethoxy)propanoyl)-3,8-diazabicyclo[3.2.1]octan-8-yl)nicotinonitrile]",< 10 nM
6,"COc1cc(C(F)(F)CCCC(=O)N2CC3CCC(C2)N3c2ccc(C#N)cn2)ccn1 [Example 150, 6-(3-(5,5-difluoro-5-(2-methoxypyridin-4-yl)pentanoyl)-3,8-diazabicyclo[3.2.1]octan-8-yl)nicotinonitrile]",100 to 1000 nM
7,"CC(C)(OCC(=O)N1CC2CCC(C1)N2c1ccc(C#N)cn1)c1cccc2ncnn12 (racemic) [Example 203, 6-(3-(2-((2-([1,2,4]triazolo[1,5-a]pyridin-5-yl)propan-2-yl)oxy)acetyl)-3,8-diazabicyclo[3.2.1]octan-8-yl)nicotinonitrile]",100 to 1000 nM
8,"COc1cc(C2(NCC(=O)N3CC4CCC(C3)N4c3ccc(C#N)cn3)CC2)c(F)cc1F [Example 113, 6-(3-((1-(2,4-difluoro-5-methoxyphenyl)cyclopropyl)glycyl)-3,8-diazabicyclo[3.2.1]octan-8-yl)nicotinonitrile]",< 10 nM
9,"CC(c1ccccc1)S(=O)(=O)CCC(=O)N1CC2CCC(C1)N2c1ccc(C#N)cn1 (racemic) [Example 174, 6-(3-(3-((1-phenylethyl)sulfonyl)propanoyl)-3,8-diazabicyclo[3.2.1]octan-8-yl)nicotinonitrile]",> 1000 nM
10,"COc1cccc(C2(NCC(=O)N3CC4CCC(C3)N4c3ccc(C#N)cn3)CCC2)c1 [Example 114, 6-(3-((1-(3-methoxyphenyl)cyclobutyl)glycyl)-3,8-diazabicyclo[3.2.1]octan-8-yl)nicotinonitrile]",< 10 nM
11,"CC(SCC(=O)N1CC2CCC(C1)N2c1ccc(C#N)cn1)c1ccccc1 (racemic) [Example 132, 6-(3-(2-((1-phenylethyl)thio)acetyl)-3,8-diazabicyclo[3.2.1]octan-8-yl)nicotinonitrile]",< 10 nM
12,"N#Cc1ccc(N2C3CCC2CN(C(=O)COC2(c4cccc(OC(F)(F)F)c4)CCC2)C3)nc1 [Example 238, 6-(3-(2-(1-(3-(trifluoromethoxy)phenyl)cyclobutoxy)acetyl)-3,8-diazabicyclo[3.2.1]octan-8-yl)nicotinonitrile]",100 to 1000 nM
13,"CC(c1ccc(F)cc1)S(=O)(=O)CC(=O)N1CC2CCC(C1)N2c1ccc(C#N)cn1 (racemic) [Example 173, 6-(3-(2-((1-(4-fluorophenyl)ethyl)sulfonyl)acetyl)-3,8-diazabicyclo[3.2.1]octan-8-yl)nicotinonitrile]",1000 to 10000 nM
14,"COc1cncc(C2(OCC(=O)N3CC4CCC(C3)N4c3ccc(C#N)cn3)CCC2)c1 [Example 233, 6-(3-(2-(1-(5-methoxypyridin-3-yl)cyclobutoxy)acetyl)-3,8-diazabicyclo[3.2.1]octan-8-yl)nicotinonitrile]",< 10 nM
15,"N#Cc1ccc(N2C3CCC2CN(C(=O)COC2(c4ccncc4F)CC2)C3)nc1 [Example 228, 6-(3-(2-(1-(3-fluoropyridin-4-yl)cyclopropoxy)acetyl)-3,8-diazabicyclo[3.2.1]octan-8-yl)nicotinonitrile]",10 to 100 nM
16,"CC(NCCC(=O)N1C[C@H]2CC[C@@H](C1)N2c1ccc(C#N)cn1)c1cccc2ncsc12 (mixture of isomers) [Example 51, 6-(3-(3-((1-(benzo[d]thiazol-7-yl)ethyl)amino)propanoyl)-3,8-diazabicyclo[3.2.1]octan-8-yl)nicotinonitrile]",10 to 100 nM
17,"N#Cc1ccc(N2C3CCC2CN(C(=O)COC2(c4cncc(OCC(F)(F)F)c4)CCC2)C3)nc1 [Example 314, 6-(3-(2-(1-(5-(2,2,2-trifluoroethoxy)pyridin-3-yl)cyclobutoxy)acetyl)-3,8-diazabicyclo[3.2.1]octan-8-yl)nicotinonitrile]",10 to 100 nM
18,"N#Cc1ccc(N2C3CCC2CN(C(=O)COCC2(c4ccc(F)cc4)CC2)C3)nc1 [Example 188, 6-(3-(2-((1-(4-fluorophenyl)cyclopropyl)methoxy)acetyl)-3,8-diazabicyclo[3.2.1]octan-8-yl)nicotinonitrile]",1000 to 10000 nM
19,"N#Cc1ccc(N2[C@@H]3CC[C@H]2CN(C(=O)CCNC2(c4cc(F)cc(F)c4)CC2)C3)nc1 [Example 33, 6-(3-(3-((1-(3,5-difluorophenyl)cyclopropyl)amino)propanoyl)-3,8-diazabicyclo[3.2.1]octan-8-yl)nicotinonitrile]",10 to 100 nM
20,"Cc1csc(C2(OCC(=O)N3CC4CCC(C3)N4c3ccc(C#N)cn3)CCC2)n1 [Example 266, 6-(3-(2-(1-(4-methylthiazol-2-yl)cyclobutoxy)acetyl)-3,8-diazabicyclo[3.2.1]octan-8-yl)nicotinonitrile]",100 to 1000 nM
21,"N#Cc1ccc(N2C3CCC2CN(C(=O)CNC2(c4cccc(F)c4F)CC2)C3)nc1 [Example 70, 6-(3-((1-(2,3-difluorophenyl)cyclopropyl)glycyl)-3,8-diazabicyclo[3.2.1]octan-8-yl)nicotinonitrile]",100 to 1000 nM
22,COc1cccc(C2(NCC(=O)N3CC4CCC(C3)N4c3ccc(C#N)cn3)CC2)c1 [Example 98],< 10 nM
23,"N#Cc1ccc(N2C3CCC2CN(C(=O)CNC2(c4ccc(F)cc4F)CCC2)C3)nc1 [Example 115, 6-(3-((1-(2,4-difluorophenyl)cyclobutyl)glycyl)-3,8-diazabicyclo[3.2.1]octan-8-yl)nicotinonitrile]",10 to 100 nM
24,"CC(NCC(=O)N1CC2CCC(C1)N2c1ccc(C#N)cn1)c1cccc2ncnn12 (racemic) [Example 54, 6-(3-((1-([1,2,4]triazolo[1,5-a]pyridin-5-yl)ethyl)glycyl)-3,8-diazabicyclo[3.2.1]octan-8-yl)nicotinonitrile]",10 to 100 nM
25,COc1ccc(C2(NCC(=O)N3CC4CCC(C3)N4c3ccc(C#N)cn3)CC2)cc1F [Example 108],100 to 1000 nM
26,"N#Cc1ccc(N2C3CCC2CN(C(=O)CNC2(c4cccnn4)CC2)C3)nc1 [Example 64, 6-(3-((1-(pyridazin-3-yl)cyclopropyl)glycyl)-3,8-diazabicyclo[3.2.1]octan-8-yl)nicotinonitrile]",100 to 1000 nM
